Experimental data published in ChEMBL document CHEMBL5506020 (J Med Chem, 2024).
Calls of active or inactive are those of the source. The rule behind the calls is not given here.

Assays:
[1] = tested on: MV4-11; assay: Antiproliferative activity against human MV4-11 cells incubated for 120 hrs by Cell-Titer Glo assay; settings: MV4-11, 120 h
[2] = biological target: Protein cereblon/Histone acetyltransferase p300 (Homo sapiens) (UniProt Q09472+Q96SW2); assay: PROTAC activity at CRBN/p300 in human MV4-11 cells assessed as p300 degradation at 10 to 50 nM incubated for 24 hrs by Western blotting analysis; assay type: cell-based; settings: dose 10-50 nM
Chain of Protein cereblon/Histone acetyltransferase p300 (Homo sapiens) (Q09472 2-2414 limits assumed): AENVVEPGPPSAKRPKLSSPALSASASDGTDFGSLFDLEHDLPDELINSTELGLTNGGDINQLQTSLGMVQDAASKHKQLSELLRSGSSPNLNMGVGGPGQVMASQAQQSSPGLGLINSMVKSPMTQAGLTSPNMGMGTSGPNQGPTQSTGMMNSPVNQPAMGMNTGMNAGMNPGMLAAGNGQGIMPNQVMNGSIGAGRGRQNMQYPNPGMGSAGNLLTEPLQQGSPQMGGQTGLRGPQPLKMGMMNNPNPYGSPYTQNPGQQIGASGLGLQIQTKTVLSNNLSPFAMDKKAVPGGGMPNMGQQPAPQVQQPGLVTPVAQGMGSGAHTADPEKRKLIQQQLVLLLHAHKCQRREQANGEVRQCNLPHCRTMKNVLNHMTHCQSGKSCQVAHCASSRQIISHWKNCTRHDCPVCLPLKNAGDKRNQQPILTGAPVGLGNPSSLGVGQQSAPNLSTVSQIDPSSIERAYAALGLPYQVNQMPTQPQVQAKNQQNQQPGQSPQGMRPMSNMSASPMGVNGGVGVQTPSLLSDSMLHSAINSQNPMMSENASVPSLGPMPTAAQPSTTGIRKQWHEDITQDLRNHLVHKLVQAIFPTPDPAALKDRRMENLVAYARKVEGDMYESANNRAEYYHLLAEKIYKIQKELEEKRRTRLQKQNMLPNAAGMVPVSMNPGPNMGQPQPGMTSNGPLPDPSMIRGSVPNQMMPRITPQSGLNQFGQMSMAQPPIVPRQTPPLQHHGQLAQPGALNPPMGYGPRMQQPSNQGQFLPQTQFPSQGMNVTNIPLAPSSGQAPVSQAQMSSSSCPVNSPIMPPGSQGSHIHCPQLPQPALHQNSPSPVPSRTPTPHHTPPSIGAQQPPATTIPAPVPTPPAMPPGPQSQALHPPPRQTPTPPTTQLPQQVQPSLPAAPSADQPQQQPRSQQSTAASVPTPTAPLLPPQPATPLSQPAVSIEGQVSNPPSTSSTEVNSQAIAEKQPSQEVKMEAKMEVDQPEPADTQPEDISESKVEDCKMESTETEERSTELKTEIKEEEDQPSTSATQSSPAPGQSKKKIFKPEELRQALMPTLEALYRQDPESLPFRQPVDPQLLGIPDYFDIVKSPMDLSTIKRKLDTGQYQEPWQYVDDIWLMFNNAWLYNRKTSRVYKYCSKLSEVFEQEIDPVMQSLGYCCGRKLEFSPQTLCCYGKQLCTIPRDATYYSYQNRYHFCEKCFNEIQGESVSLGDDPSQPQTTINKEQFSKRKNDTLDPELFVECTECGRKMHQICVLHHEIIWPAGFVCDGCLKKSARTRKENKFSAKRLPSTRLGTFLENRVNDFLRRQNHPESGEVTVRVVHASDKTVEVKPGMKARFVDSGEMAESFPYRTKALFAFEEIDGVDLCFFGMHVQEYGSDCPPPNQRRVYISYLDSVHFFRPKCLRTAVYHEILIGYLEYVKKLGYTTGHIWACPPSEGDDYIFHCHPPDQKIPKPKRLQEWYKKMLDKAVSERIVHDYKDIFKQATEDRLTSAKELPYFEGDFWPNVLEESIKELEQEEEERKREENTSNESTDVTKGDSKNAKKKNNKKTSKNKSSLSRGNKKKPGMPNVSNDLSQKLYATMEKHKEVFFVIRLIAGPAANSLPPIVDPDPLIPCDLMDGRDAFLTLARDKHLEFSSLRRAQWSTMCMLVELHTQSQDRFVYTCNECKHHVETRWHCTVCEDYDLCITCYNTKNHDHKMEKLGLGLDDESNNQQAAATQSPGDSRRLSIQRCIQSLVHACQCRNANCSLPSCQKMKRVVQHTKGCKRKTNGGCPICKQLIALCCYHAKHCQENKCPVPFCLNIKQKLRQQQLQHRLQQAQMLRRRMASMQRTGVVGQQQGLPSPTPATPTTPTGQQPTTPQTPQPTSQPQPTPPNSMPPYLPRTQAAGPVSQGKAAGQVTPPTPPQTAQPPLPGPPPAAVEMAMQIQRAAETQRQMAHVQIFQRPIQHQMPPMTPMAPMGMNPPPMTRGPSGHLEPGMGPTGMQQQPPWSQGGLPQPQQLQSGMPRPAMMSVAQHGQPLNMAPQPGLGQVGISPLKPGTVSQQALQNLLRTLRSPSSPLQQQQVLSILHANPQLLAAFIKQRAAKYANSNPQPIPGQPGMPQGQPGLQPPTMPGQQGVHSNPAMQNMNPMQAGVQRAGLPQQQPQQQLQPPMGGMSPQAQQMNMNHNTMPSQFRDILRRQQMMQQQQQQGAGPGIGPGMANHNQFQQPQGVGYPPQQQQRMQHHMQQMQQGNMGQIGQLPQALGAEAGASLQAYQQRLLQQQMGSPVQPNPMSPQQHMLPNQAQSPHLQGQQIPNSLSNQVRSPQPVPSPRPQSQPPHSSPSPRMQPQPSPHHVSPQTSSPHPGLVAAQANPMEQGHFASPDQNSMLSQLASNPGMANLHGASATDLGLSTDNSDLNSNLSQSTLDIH
Chain of Protein cereblon/Histone acetyltransferase p300 (Homo sapiens) (Q96SW2 whole entry partner): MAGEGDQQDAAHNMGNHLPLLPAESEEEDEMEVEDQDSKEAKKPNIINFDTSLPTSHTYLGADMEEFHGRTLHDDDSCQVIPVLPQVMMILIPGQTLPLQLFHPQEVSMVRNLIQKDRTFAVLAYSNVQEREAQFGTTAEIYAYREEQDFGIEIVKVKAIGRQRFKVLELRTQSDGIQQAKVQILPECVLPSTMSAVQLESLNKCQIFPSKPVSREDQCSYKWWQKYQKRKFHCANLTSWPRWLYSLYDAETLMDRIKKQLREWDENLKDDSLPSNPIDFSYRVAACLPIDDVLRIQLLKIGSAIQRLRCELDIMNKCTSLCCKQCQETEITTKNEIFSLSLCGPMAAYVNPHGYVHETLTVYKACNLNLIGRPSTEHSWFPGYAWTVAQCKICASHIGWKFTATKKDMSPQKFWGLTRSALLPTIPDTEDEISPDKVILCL

IC50 [1] [nM] | Activity [2] | SMILES
1800 |  | Cc1noc(C)c1-c1ccc2c(c1)nc([C@@H]1CCCC(=O)N1c1ccc(F)c(F)c1)n2C1CCN(CC(=O)NCCC#Cc2cccc3c2C(=O)N(C2CCC(=O)NC2=O)C3=O)CC1 (stereo partly specified)
266 | inactive | Cc1noc(C)c1-c1ccc2c(c1)nc([C@@H]1CCCC(=O)N1c1ccc(F)c(F)c1)n2C1CCN(CC(=O)N2CCC(CN3CCN(c4cccc5c4C(=O)N(C4CCC(=O)NC4=O)C5=O)CC3)CC2)CC1 (stereo partly specified)
273 | Active | Cc1noc(C)c1-c1ccc2c(c1)nc([C@@H]1CCCC(=O)N1c1ccc(F)c(F)c1)n2C1CCN(CC(=O)Nc2ccc(CC3CCN(c4cccc5c4C(=O)N(C4CCC(=O)NC4=O)C5=O)CC3)cc2)CC1 (stereo partly specified)
1740 |  | Cc1noc(C)c1-c1ccc2c(c1)nc([C@@H]1CCCC(=O)N1c1ccc(F)c(F)c1)n2C1CCN(CC(=O)NC2CCN(c3cccc4c3C(=O)N(C3CCC(=O)NC3=O)C4=O)CC2)CC1 (stereo partly specified)
1700 | inactive | Cc1noc(C)c1-c1ccc2c(c1)nc([C@@H]1CCCC(=O)N1c1ccc(F)c(F)c1)n2C1CCN(CC(=O)NCCOCCNc2ccc3c(c2)C(=O)N(C2CCC(=O)NC2=O)C3=O)CC1 (stereo partly specified)
223 | inactive | Cc1noc(C)c1-c1ccc2c(c1)nc([C@@H]1CCCC(=O)N1c1ccc(F)c(F)c1)n2C1CCN(CC(=O)N2CCN(CCNc3cccc4c3C(=O)N(C3CCC(=O)NC3=O)C4=O)CC2)CC1 (stereo partly specified)
980 |  | Cc1noc(C)c1-c1ccc2c(c1)nc([C@@H]1CCCC(=O)N1c1ccc(F)c(F)c1)n2C1CCN(CC(=O)NCC2CCN(c3cccc4c3C(=O)N(C3CCC(=O)NC3=O)C4=O)CC2)CC1 (stereo partly specified)
1700 |  | Cc1noc(C)c1-c1ccc2c(c1)nc([C@@H]1CCCC(=O)N1c1ccc(F)c(F)c1)n2C1CCN(CC(=O)N2CCN(c3cccc4c3C(=O)N(C3CCC(=O)NC3=O)C4=O)CC2)CC1 (stereo partly specified)
1800 | inactive | Cc1noc(C)c1-c1ccc2c(c1)nc([C@@H]1CCCC(=O)N1c1ccc(F)c(F)c1)n2C1CCN(CC(=O)NCCNc2ccc3c(c2)C(=O)N(C2CCC(=O)NC2=O)C3=O)CC1 (stereo partly specified)
1720 |  | Cc1noc(C)c1-c1ccc2c(c1)nc([C@@H]1CCCC(=O)N1c1ccc(F)c(F)c1)n2C1CCN(CC(=O)NCCCC#Cc2cccc3c2C(=O)N(C2CCC(=O)NC2=O)C3=O)CC1 (stereo partly specified)
2640 | inactive | Cc1noc(C)c1-c1ccc2c(c1)nc([C@@H]1CCCC(=O)N1c1ccc(F)c(F)c1)n2C1CCN(CC(=O)NCCCNc2ccc3c(c2)C(=O)N(C2CCC(=O)NC2=O)C3=O)CC1 (stereo partly specified)
606 | Active | Cc1noc(C)c1-c1ccc2c(c1)nc([C@@H]1CCCC(=O)N1c1ccc(F)c(F)c1)n2C1CCN(CC(=O)NCCCCCCCCCCNc2cccc3c2C(=O)N(C2CCC(=O)NC2=O)C3=O)CC1 (stereo partly specified)
1020 | inactive | Cc1noc(C)c1-c1ccc2c(c1)nc([C@@H]1CCCC(=O)N1c1ccc(F)c(F)c1)n2C1CCN(CC(=O)NCCCCCCNc2ccc3c(c2)C(=O)N(C2CCC(=O)NC2=O)C3=O)CC1 (stereo partly specified)
1900 |  | Cc1noc(C)c1-c1ccc2c(c1)nc([C@@H]1CCCC(=O)N1c1ccc(F)c(F)c1)n2C1CCN(CC(=O)NCCOCCNc2cccc3c2C(=O)N(C2CCC(=O)NC2=O)C3=O)CC1 (stereo partly specified)
1140 |  | Cc1noc(C)c1-c1ccc2c(c1)nc([C@@H]1CCCC(=O)N1c1ccc(F)c(F)c1)n2C1CCN(CC(=O)NCC#Cc2cccc3c2C(=O)N(C2CCC(=O)NC2=O)C3=O)CC1 (stereo partly specified)
2210 | inactive | Cc1noc(C)c1-c1ccc2c(c1)nc([C@@H]1CCCC(=O)N1c1ccc(F)c(F)c1)n2C1CCN(CC(=O)NCCCCNc2ccc3c(c2)C(=O)N(C2CCC(=O)NC2=O)C3=O)CC1 (stereo partly specified)

IC50 [1] [nM] | Activity [2] | SMILES
30.1 | Active | Cc1noc(C)c1-c1ccc2c(c1)nc([C@@H]1CCCC(=O)N1c1ccc(F)c(F)c1)n2C1CCN(CC(=O)Nc2ccc(C3CCN(c4cccc5c4C(=O)N(C4CCC(=O)NC4=O)C5=O)CC3)cc2)CC1 (stereo partly specified)
1010 | inactive | Cc1noc(C)c1-c1ccc2c(c1)nc([C@@H]1CCCC(=O)N1c1ccc(F)c(F)c1)n2C1CCN(CC(=O)NCCCCCNc2ccc3c(c2)C(=O)N(C2CCC(=O)NC2=O)C3=O)CC1 (stereo partly specified)
165 |  | Cc1noc(C)c1-c1ccc2c(c1)nc([C@@H]1CCCC(=O)N1c1ccc(F)c(F)c1)n2C1CCN(C)CC1
84.8 | Active | Cc1noc(C)c1-c1ccc2c(c1)nc([C@@H]1CCCC(=O)N1c1ccc(F)c(F)c1)n2C1CCN(CC(=O)Nc2ccc(CNc3cccc4c3C(=O)N(C3CCC(=O)NC3=O)C4=O)cc2)CC1 (stereo partly specified)
405 | Active | Cc1noc(C)c1-c1ccc2c(c1)nc([C@@H]1CCCC(=O)N1c1ccc(F)c(F)c1)n2C1CCN(CC(=O)NCCCCCCNc2cccc3c2C(=O)N(C2CCC(=O)NC2=O)C3=O)CC1 (stereo partly specified)
6060 | inactive | Cc1noc(C)c1-c1ccc2c(c1)nc([C@@H]1CCCC(=O)N1c1ccc(F)c(F)c1)n2C1CCN(CC(=O)NCCOCCOCCNc2ccc3c(c2)C(=O)N(C2CCC(=O)NC2=O)C3=O)CC1 (stereo partly specified)
2020 |  | Cc1noc(C)c1-c1ccc2c(c1)nc([C@@H]1CCCC(=O)N1c1ccc(F)c(F)c1)n2C1CCN(CC(=O)NCCOCCOCCOCCNc2cccc3c2C(=O)N(C2CCC(=O)NC2=O)C3=O)CC1 (stereo partly specified)
1170 |  | Cc1noc(C)c1-c1ccc2c(c1)nc([C@@H]1CCCC(=O)N1c1ccc(F)c(F)c1)n2C1CCN(CC(=O)NCCC2CCN(c3cccc4c3C(=O)N(C3CCC(=O)NC3=O)C4=O)CC2)CC1 (stereo partly specified)
218 | Active | Cc1noc(C)c1-c1ccc2c(c1)nc([C@@H]1CCCC(=O)N1c1ccc(F)c(F)c1)n2C1CCN(CC(=O)NCCCCCCCCNc2cccc3c2C(=O)N(C2CCC(=O)NC2=O)C3=O)CC1 (stereo partly specified)
132 | Active | Cc1noc(C)c1-c1ccc2c(c1)nc([C@@H]1CCCC(=O)N1c1ccc(F)c(F)c1)n2C1CCN(CC(=O)Nc2ccc(CCNc3cccc4c3C(=O)N(C3CCC(=O)NC3=O)C4=O)cc2)CC1 (stereo partly specified)
> 10000 | inactive | Cc1noc(C)c1-c1ccc2c(c1)nc([C@@H]1CCCC(=O)N1c1ccc(F)c(F)c1)n2C1CCN(CC(=O)NCCOCCOCCOCCNc2ccc3c(c2)C(=O)N(C2CCC(=O)NC2=O)C3=O)CC1 (stereo partly specified)
464 | Active | Cc1noc(C)c1-c1ccc2c(c1)nc([C@@H]1CCCC(=O)N1c1ccc(F)c(F)c1)n2C1CCN(CC(=O)NCCCCCNc2cccc3c2C(=O)N(C2CCC(=O)NC2=O)C3=O)CC1 (stereo partly specified)
112 |  | Cc1noc(C)c1-c1ccc2c(c1)nc([C@@H]1CCCC(=O)N1c1ccc(F)c(F)c1)n2C1CCN(CC(=O)N2CCC(N3CCC(Nc4cccc5c4C(=O)N(C4CCC(=O)NC4=O)C5=O)CC3)CC2)CC1 (stereo partly specified)
1760 |  | Cc1noc(C)c1-c1ccc2c(c1)nc([C@@H]1CCCC(=O)N1c1ccc(F)c(F)c1)n2C1CCN(CC(=O)N2CCC(Nc3cccc4c3C(=O)N(C3C(=O)CCNC3=O)C4=O)CC2)CC1 (stereo partly specified)
525 | Active | Cc1noc(C)c1-c1ccc2c(c1)nc([C@@H]1CCCC(=O)N1c1ccc(F)c(F)c1)n2C1CCN(CC(=O)NCCCCCCCNc2cccc3c2C(=O)N(C2CCC(=O)NC2=O)C3=O)CC1 (stereo partly specified)
1680 |  | Cc1noc(C)c1-c1ccc2c(c1)nc([C@@H]1CCCC(=O)N1c1ccc(F)c(F)c1)n2C1CCN(CC(=O)NCCOCCOCCNc2cccc3c2C(=O)N(C2CCC(=O)NC2=O)C3=O)CC1 (stereo partly specified)
